Assay results: patent US20260193293A1, “PEPTIDES CAPABLE OF INHIBITING PROTEIN-PROTEIN INTERACTIONS AT GABAB1A SUBUNIT AND USES THEREOF” (UNIVERSITY OF COPENHAGEN, priority 2022, published 2026)
Read-outs that look alike come from different tables or passages of the source. Non-standard residues stand in square brackets, D forms with d. Residues, ends and D or L forms follow the SMILES beside them. NMeI = CC[C@H](C)[C@H](NC)C(=O)O; 3Pal = N[C@@H](Cc1cccnc1)C(=O)O; NMeD = CN[C@@H](CC(=O)O)C(=O)O; Sar = CNCC(=O)O

Molecular target: Sushi domains (SD1/2) protein
Experiment: Fluorescence polarization (FP) competition assay with AJAP-1probe, calculated Ki
Type: binding
Experimental: Fluorescence polarization (FP). FP assay was employed to determine the binding affinity of peptides in flat bottom black 384-well plates (Corning Life Science) using a Safire2 plate reader (Tecan). All experiments were conducted in 1×PBS (pH 7.4) containing 1% bovine serum albumin (BSA) at rt. The fluorescence polarization values were measured using excitation/emission wavelengths of 530/580 nm. The instrumental Z-factor was adjusted to obtain the maximum fluorescence intensity and the G-factor was calibrated to give an initial millipolarization value of 20 mP. All FP assays including saturation or competition experiments were performed using 25 nM of TAMRA labeled peptides as probes. For saturation assay, the millipolarization values were measured after mixing of probes with 12 serial 1 to 1 diluted concentrations of Sushi domains (SD1/2) protein. All experiments were performed in triplicate and the data were plotted to the one-site binding model using GraphPad Prism 9 to calculate the Kd of probes. […] The experiments were performed at least in triplicate and the data were fitted to the sigmoidal dose response curve using GraphPad Prism 9 to obtain the IC50 of peptides. The Ki values were calculated according to Nikolovska-Coleska et al^310.

[1] = CPP tagged peptides overview, SD1/2 binding affinity, mean ± SEM, n ≥ 3, read-out: Ki
[2] = Table 14, CPPs tagged peptides, read-out: Ki (nM) mean ± SEM
[3] = Table 11, deep mutational scanning validation variants of AJAP-1WT, read-out: Ki (nM) mean ± SEM

CC[C@H](C)[C@H](NC(=O)[C@H](Cc1c[nH]c2ccccc12)NC(=O)[C@H](CC(=O)O)NC(=O)[C@H](CC(=O)O)NC(=O)[C@H](CC(=O)O)NC(=O)[C@H](CCC(=O)O)NC(=O)[C@H](CO)NC(=O)CNC(=O)CNC(=O)CNC(=O)CNC(=O)[C@H](CCCNC(=N)N)NC(=O)[C@H](CCCNC(=N)N)NC(=O)[C@H](CCCNC(=N)N)NC(=O)[C@H](CCCNC(=N)N)NC(=O)[C@H](CCCNC(=N)N)NC(=O)[C@H](CCCNC(=N)N)NC(=O)[C@H](CCCNC(=N)N)NC(=O)[C@H](CCCNC(=N)N)NC(C)=O)C(=O)N[C@@H](CC(=O)O)C(=O)N[C@@H](Cc1c[nH]c2ccccc12)C(=O)N[C@@H](Cc1ccc(O)cc1)C(=O)N[C@@H](CC(=O)O)C(=O)N[C@@H](CO)C(=O)N[C@@H](CC(=O)O)C(=O)N[C@@H](CC(=O)O)C(=O)N[C@@H](CC(=O)O)C(N)=O [Peptide R8-FL-16] (Ac-RRRRRRRRGGGGSEDDDWIDWYDSDDD-NH2)
Ki [1]: 280 ± 2 nM | Ki [2]: 280 ± 2 nM

CC[C@H](C)[C@H](NC(=O)[C@H](Cc1ccccc1)NC(=O)[C@H](CCC(=O)O)NC(=O)[C@@H](NC(=O)[C@H](CCC(=O)O)NC(C)=O)[C@@H](C)O)C(=O)N[C@@H](C)C(=O)N[C@@H](Cc1c[nH]c2ccccc12)C(=O)NCC(=O)N1CCC[C@H]1C(=O)N[C@H](C(=O)N[C@@H](Cc1ccccc1)C(=O)N[C@@H](CC(=O)O)C(=O)N[C@@H](CCC(=O)O)C(=O)N[C@@H](CC(=O)O)C(N)=O)[C@@H](C)O [ETEFIAWGPTFDED]
Ki [3]: 46 ± 2 nM

CC[C@H](C)[C@@H](C(=O)N[C@@H](C)C(=O)N[C@@H](Cc1c[nH]c2ccccc12)C(=O)NCC(=O)N1CCC[C@H]1C(=O)N[C@H](C(=O)NCC(=O)N[C@@H](CC(=O)O)C(=O)N[C@@H](CCC(=O)O)C(=O)N[C@@H](CC(=O)O)C(N)=O)[C@@H](C)O)N(C)C(=O)[C@H](Cc1ccccc1)NC(=O)[C@H](CCC(=O)O)NC(=O)[C@@H](NC(=O)[C@H](CCC(=O)O)NC(C)=O)[C@@H](C)O [ETEF(N-Me-I)AWGPTGDED] (Ac-ETEF[NMeI]AWGPTGDED-NH2)
Ki (Table 8, Ala-, D-amino acids and N-methylation scans of AJAP-1WT, read-out: Ki (nM) mean ± SEM): 33 ± 1 nM

CC[C@H](C)[C@H](NC(=O)[C@H](Cc1ccccc1)NC(=O)[C@H](CCC(=O)O)NC(=O)[C@@H](NC(=O)[C@H](CCC(=O)O)NC(C)=O)[C@@H](C)O)C(=O)N[C@@H](C)C(=O)N[C@@H](Cc1c[nH]c2ccccc12)C(=O)N(C)CC(=O)N1CCC[C@H]1C(=O)N[C@H](C(=O)NCC(=O)N[C@@H](CC(=O)O)C(=O)N[C@@H](CCC(=O)O)C(=O)N[C@@H](CC(=O)O)C(N)=O)[C@@H](C)O [ETEFIAW(N-Me-G)PTGDED] (Ac-ETEFIAW[Sar]PTGDED-NH2)
Ki (Table 8, in μM, read-out: Ki (nM) mean ± SEM): > 6250 nM

CC[C@H](C)[C@H](NC(=O)[C@H](C)NC(=O)[C@H](Cc1c[nH]c2ccccc12)NC(=O)[C@@H]1CCCN1C(C)=O)C(=O)N[C@H](C(=O)N[C@@H](Cc1c[nH]c2ccccc12)C(=O)NCC(=O)N1CCC[C@H]1C(=O)N[C@H](C(=O)N[C@H](C(=O)N[C@@H](CC(=O)O)C(=O)N[C@@H](CCCNC(=N)N)C(=O)N[C@@H](CCC(=O)O)C(=O)N[C@@H](CC(=O)O)C(N)=O)C(C)C)[C@@H](C)O)C(C)C [PWAIVWGPTVDRED] (Ac-PWAIVWGPTVDRED-NH2)
Ki (Table 12, deep mutational scanning validation variants of PIANPWT, read-out: Ki (nM) mean ± SEM): 379 ± 9 nM

CC[C@H](C)[C@H](NC(=O)[C@H](Cc1ccccc1)NC(=O)[C@H](CCC(=O)O)NC(=O)[C@@H](NC(=O)[C@H](CCC(=O)O)NC(C)=O)[C@@H](C)O)C(=O)N[C@@H](C)C(=O)N[C@@H](Cc1c[nH]c2ccccc12)C(=O)NCC(=O)N1CCC[C@H]1C(=O)N[C@H](C(=O)NCC(=O)N[C@@H](CC(=O)O)C(=O)N[C@@H](CCC(=O)O)C(=O)N[C@@H](Cc1c[nH]c2ccccc12)C(N)=O)[C@@H](C)O (Ac-ETEFIAWGPTGDEW-NH2)
Ki [3]: 54 ± 2 nM

CC[C@H](C)[C@H](NC(=O)[C@H](Cc1c[nH]c2ccccc12)NC(=O)[C@H](CC(=O)O)NC(=O)[C@H](CC(=O)O)NC(=O)[C@H](CC(=O)O)NC(=O)[C@H](CCC(=O)O)NC(=O)[C@H](CO)NC(=O)CNC(=O)CNC(=O)CNC(=O)CNC(=O)[C@H](CCCNC(=N)N)NC(=O)[C@H](CCCNC(=N)N)NC(=O)[C@H](CCCNC(=N)N)NC(=O)[C@H](CCCNC(=N)N)NC(=O)[C@H](CCCNC(=N)N)NC(=O)[C@H](CCCNC(=N)N)NC(=O)[C@H](CCCNC(=N)N)NC(=O)[C@H](CCCNC(=N)N)NC(C)=O)C(=O)N[C@@H](CC(=O)O)C(=O)N[C@@H](Cc1c[nH]c2ccccc12)C(=O)NCC(=O)N1CCC[C@H]1C(=O)N[C@H](C(=O)N[C@@H](CO)C(=O)N[C@@H](CC(=O)O)C(=O)N[C@@H](CC(=O)O)C(=O)N[C@@H](CC(=O)O)C(N)=O)[C@@H](C)O [Peptide R8-FL-17] (Ac-RRRRRRRRGGGGSEDDDWIDWGPTSDDD-NH2)
Ki [1]: 140 ± 4 nM | Ki [2]: 140 ± 4 nM

CC[C@H](C)[C@H](NC(=O)[C@H](C)NC(=O)[C@H](Cc1c[nH]c2ccccc12)NC(=O)[C@@H]1CCCN1C(C)=O)C(=O)N[C@H](C(=O)N[C@@H](Cc1c[nH]c2ccccc12)C(=O)NCC(=O)N1CCC[C@H]1C(=O)N[C@H](C(=O)N[C@H](C(=O)N[C@@H](CO)C(=O)N[C@@H](CCCNC(=N)N)C(=O)N[C@@H](CCC(=O)O)C(=O)N(C)[C@@H](CC(=O)O)C(N)=O)C(C)C)[C@@H](C)O)C(C)C (Ac-PWAIVWGPTVSRE[NMeD]-NH2)
Ki (Table 9, Ala-, D-amino acids and N-methylation scans of PIANPWT, read-out: Ki (nM) mean ± SEM): 434 ± 10 nM

CC(=O)N[C@@H](CCC(=O)O)C(=O)N[C@@H](CC(=O)O)C(=O)N[C@@H](CC(=O)O)C(=O)N[C@@H](CO)C(=O)N[C@@H](Cc1cccnc1)C(=O)N[C@H](C(=O)N[C@@H](Cc1c[nH]c2ccccc12)C(=O)N[C@@H](Cc1c[nH]c2ccccc12)C(=O)NCC(=O)NCC(=O)N[C@@H](C)C(=O)N[C@@H](CC(=O)O)C(=O)N[C@H](C(=O)N[C@@H](CC(=O)O)C(N)=O)[C@@H](C)O)C(C)C (Ac-EDDS[3Pal]VWWGGADTD-NH2)
Ki (Table 16, ncAAs incorporated peptides, read-out: Ki (nM) mean ± SEM): 373 ± 7 nM

CC(=O)N[C@@H](CCC(=O)O)C(=O)N[C@@H](CCC(=O)O)C(=O)N[C@@H](CC(=O)O)C(=O)N[C@@H](CC(=O)O)C(=O)N[C@@H](CO)C(=O)N[C@@H](CC(=O)O)C(=O)N[C@H](C(=O)N[C@@H](Cc1c[nH]c2ccccc12)C(=O)N[C@@H](Cc1c[nH]c2ccccc12)C(=O)NCC(=O)NCC(=O)N[C@@H](C)C(=O)N[C@@H](CC(=O)O)C(N)=O)C(C)C (Ac-EEDDSDVWWGGAD-NH2)
Ki (Table 4, truncation and elongation scans of APP epitope, read-out: Ki (nM) mean ± SEM): 534 ± 13 nM

CC[C@H](C)[C@H](NC(=O)[C@H](Cc1c[nH]c2ccccc12)NC(=O)[C@H](CC(=O)O)NC(=O)[C@H](CC(=O)O)NC(=O)[C@H](CC(=O)O)NC(=O)[C@H](CCC(=O)O)NC(=O)[C@H](CCCNC(=N)N)NC(=O)[C@H](CCCNC(=N)N)NC(=O)[C@H](CCCNC(=N)N)NC(=O)[C@H](CCCNC(=N)N)NC(C)=O)C(=O)N[C@@H](CC(=O)O)C(=O)N[C@@H](Cc1c[nH]c2ccccc12)C(=O)N[C@@H](Cc1ccc(O)cc1)C(=O)N[C@@H](CC(=O)O)C(=O)N[C@@H](CO)C(=O)N[C@@H](CC(=O)O)C(=O)N[C@@H](CC(=O)O)C(=O)N[C@@H](CC(=O)O)C(N)=O [Peptide 4R-16] (Ac-RRRREDDDWIDWYDSDDD-NH2)
Ki [2]: 20.6 ± 0.2 nM

CC[C@H](C)[C@H](NC(=O)[C@H](C)NC(=O)[C@H](Cc1c[nH]c2ccccc12)NC(=O)[C@@H]1CCCN1C(C)=O)C(=O)N[C@H](C(=O)N[C@@H](Cc1c[nH]c2ccccc12)C(=O)NCC(=O)N1CCC[C@H]1C(=O)N[C@H](C(=O)N[C@H](C(=O)N[C@@H](CO)C(=O)N[C@@H](CCCNC(=N)N)C(=O)N[C@@H](CCC(=O)O)C(N)=O)C(C)C)[C@@H](C)O)C(C)C (Ac-PWAIVWGPTVSRE-NH2)
Ki (Table 6, elongation and truncation scan of PIANP binding epitope, read-out: Ki (nM) mean ± SEM): 650 ± 9 nM
